Assay results reported in patent US20260285831A1, “LACTAM DERIVATIVES FOR INHIBITING NLRP3 AND USES THEREOF” (Ventus Therapeutics U.S., Inc., priority 2023, published 2026).

target: T1, human NLRP3 (Homo sapiens, UniProt Q96P20); test: Human whole blood (hWB) NLRP3 assay (IL-1β release after LPS priming and ATP activation); assay type: cell-based; settings: human whole blood, LPS 1 μg/ml priming, ATP activation; Table C, class symbols; read-out: hWB IL-1β IC50
T1 construct: Human whole blood is drawn from healthy volunteers after obtaining written informed consent; from tissue; host or cells: human whole blood from healthy volunteers (heparin lithium tubes)
T1 sequence (Q96P20 whole entry): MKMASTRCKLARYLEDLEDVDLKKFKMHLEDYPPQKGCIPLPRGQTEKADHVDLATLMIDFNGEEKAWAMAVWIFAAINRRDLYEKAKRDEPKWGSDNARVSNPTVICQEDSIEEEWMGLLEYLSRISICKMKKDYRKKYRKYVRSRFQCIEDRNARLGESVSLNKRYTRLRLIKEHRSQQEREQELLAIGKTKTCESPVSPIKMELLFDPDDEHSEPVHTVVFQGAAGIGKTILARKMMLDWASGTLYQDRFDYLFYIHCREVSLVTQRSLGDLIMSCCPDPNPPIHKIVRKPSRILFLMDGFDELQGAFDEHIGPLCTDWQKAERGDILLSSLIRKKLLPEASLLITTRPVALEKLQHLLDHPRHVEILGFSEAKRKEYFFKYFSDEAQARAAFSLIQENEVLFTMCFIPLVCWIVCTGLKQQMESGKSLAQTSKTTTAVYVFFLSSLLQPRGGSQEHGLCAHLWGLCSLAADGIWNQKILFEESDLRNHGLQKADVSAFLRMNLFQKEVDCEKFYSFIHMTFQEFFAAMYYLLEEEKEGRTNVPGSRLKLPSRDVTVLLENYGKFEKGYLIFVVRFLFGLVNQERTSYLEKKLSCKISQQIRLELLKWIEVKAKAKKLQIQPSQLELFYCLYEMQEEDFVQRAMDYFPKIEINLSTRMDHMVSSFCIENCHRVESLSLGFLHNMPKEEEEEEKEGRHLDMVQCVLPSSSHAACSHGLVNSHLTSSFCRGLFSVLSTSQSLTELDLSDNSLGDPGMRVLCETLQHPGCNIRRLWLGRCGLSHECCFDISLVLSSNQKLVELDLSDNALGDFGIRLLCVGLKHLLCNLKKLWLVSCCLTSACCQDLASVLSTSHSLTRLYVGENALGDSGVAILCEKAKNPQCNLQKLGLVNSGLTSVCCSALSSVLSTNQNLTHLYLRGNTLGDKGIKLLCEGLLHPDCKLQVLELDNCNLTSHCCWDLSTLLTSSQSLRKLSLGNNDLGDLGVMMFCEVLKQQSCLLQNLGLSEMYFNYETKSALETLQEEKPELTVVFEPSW
Method: Human Whole Blood (hWB) NLRP3 Assay
Human whole blood is drawn from healthy volunteers after obtaining written informed consent. Heparin lithium coated tubes are used to collect blood from volunteers. Blood samples are distributed on 96 well plates using 90 μl per well.
Priming procedure: Priming is performed by adding 5 μl of LPS (026:B6; Sigma L-2654) at a final concentration of 1 μg/ml for 4.5 hours in a humidified incubator with 37° C., 5% CO2. Thirty minutes prior to NLRP3 activation, 5 μl of a 20× compound solution or vehicle (2% dimethylsulfoxide (DMSO)) is added to each well and plates were incubated on a shaker (450 rpm) in a humidified incubator with 37° C., 5% CO2.
Alternative priming procedure: Thirty minutes prior to LPS priming, 5 μl of a 20× compound solution or vehicle (2% dimethylsulfoxide (DMSO)) is added to each well and plates were incubated on a shaker (450 rpm) in a humidified incubator with 37° C., 5% CO2. Priming is performed by adding 5 μl of LPS (026:B6; Sigma L-2654) at a final concentration of 1 μg/ml for 5 hours in a humidified incubator with 37° C., 5% CO2.
Activation is then performed by adding 3.3 μl of a 31×ATP solution per well. At the end of the 30 minutes stimulation, the plates are centrifuged (800 g, 10 min, room temperature) and the plasma from each well is frozen at −80° C. […] levels in the supernatant were analyzed using a mesoscale discovery assay (MSD K151TUK) according to the manufacturers' instructions.
There is no detectable difference in assay IC50 results using the priming procedure versus the alternative priming procedure.
Data provided in Table C, below. hWB […] Assay: A represents an IC50 value <0.3 μM; B represents an IC50 value ≥0.3 μM and <0.5 μM; C represents an IC50 value ≥0.5 μM and <1.0 μM; D represents an IC50 value ≥1.0 μM and <10 μM; E represents an IC50 value ≥10 μM. Dashed (--) lines indicate no data available.

`CC1(C)C(=O)N(c2cc(-c3ccccc3)cn(CCCC(=O)O)c2=O)c2c(F)cc(C3CC3)c(F)c21` [Compound 13, 4-(3-(5-cyclopropyl-4,7-difluoro-3,3-dimethyl-2-oxoindolin-1-yl)-2-oxo-5-phenylpyridin-1(2H)-yl)butanoic acid] and `CC1(C)C(=O)N(c2c(=O)n(CCCC(=O)O)cc3ccccc23)c2c(F)cc(C3CC3)c(F)c21` [Compound 15, 4-(4-(5-cyclopropyl-4,7-difluoro-3,3-dimethyl-2-oxoindolin-1-yl)-3-oxoisoquinolin-2(3H)-yl)butanoic acid] cannot be ordered by IC50: ≥ 10000 nM for the first, ≥ 10000 nM for the second.

First: CC1(C)C(=O)N(c2cc(C3CC3)cn(CCCC(=O)O)c2=O)c2c(F)cc(C3CC3)c(F)c21 [Compound 14, 4-(5-cyclopropyl-3-(5-cyclopropyl-4,7-difluoro-3,3-dimethyl-2-oxoindolin-1-yl)-2-oxopyridin-1(2H)-yl)butanoic acid]
Second: CC1(C)C(=O)N([C@@H]2CCN(CCCC(=O)O)C2=O)c2c(F)cc(C3CC3)c(F)c21 [Compound 16A, (R)-4-(3-(5-cyclopropyl-4,7-difluoro-3,3-dimethyl-2-oxoindolin-1-yl)-2-oxopyrrolidin-1-yl)butanoic acid]
The IC50 of the first is higher: 1000 to 10000 nM for the first, < 300 nM for the second. The second is the more potent here.

`CC1(C)C(=O)N([C@H]2CCN(CCCC(=O)O)C2=O)c2c(F)cc(C3CC3)c(F)c21` [Compound 16B, (S)-4-(3-(5-cyclopropyl-4,7-difluoro-3,3-dimethyl-2-oxoindolin-1-yl)-2-oxopyrrolidin-1-yl)butanoic acid] and `CC1(C)C(=O)N(c2nccn(CCCC(=O)O)c2=O)c2ccc(C3CC3)c(F)c21` [Compound 21, 4-(3-(5-cyclopropyl-4-fluoro-3,3-dimethyl-2-oxoindolin-1-yl)-2-oxopyrazin-1(2H)-yl)butanoic acid] fall in the same range of IC50: 1000 to 10000 nM for the first, 1000 to 10000 nM for the second.

In the case of `CC1(C)C(=O)N(c2nccn(CCCC(=O)O)c2=O)c2c(F)cc(C(F)(F)F)c(F)c21` [Compound 17, 4-(3-(4,7-difluoro-3,3-dimethyl-2-oxo-5-(trifluoromethyl)indolin-1-yl)-2-oxopyrazin-1(2H)-yl)butanoic acid], the IC50 is reported as 500 to 1000 nM.
